Assay results reported in US20220409620A1, “REDUCING IMMUNOGENICITY TO PEGLOTICASE” (Horizon Pharma Rheumatology LLC, priority 2016, published 2022).

System: adult patients with uncontrolled gout
Test: Serum uric acid (sUA) levels and sUA responder rate, open-label study of pegloticase with MTX (MIRROR OL)
Type: in vivo, human
Conditions: mITT Population
Experimental: The primary objective is to estimate the response rate during Month 6 (Weeks 20, 22, and 24), as measured by the sustained normalization of serum uric acid (SUA) to <6 mg/dL for at least 80% of the time during Month 6 in subjects receiving KXX with MTX.
The primary efficacy outcome endpoint is the sustained normalization of SUA to <6 mg/dL for at least 80% of the time during month 6 (weeks 20, 22, and 24) in subjects receiving KXX with MTX. […] Participants who achieve this endpoint were classified as “responders.” Serum uric acid (SUA) responders may also be defined as participants achieving and maintaining SUA <6 mg/dL for at least 80% of the time during Month 6 (Weeks 20, 22, and 24).
Blood samples may be collected prior to each pegloticase infusion for measurement of SUA levels using the Beckman Coulter AU System Uric Acid procedure. Participants were declared “non-responders” if there were SUA measures >6 mg/dL at 2 consecutive study visits beginning with the week 2 visit. […] This assumption and subsequent discontinuation of pegloticase was consistent with the protocol of large phase III randomized controlled trials and the product label. A formal stopping rule was 2 occasions of SUA levels of greater than 6 mg/dL.
Clinical Chemistry—Blood samples were collected prior to each pegloticase infusion for measurement of SUA levels (primary efficacy parameter) using the Beckman Coulter AU System Uric Acid procedure. In this procedure uric acid is converted to hydrogen peroxide. Hydrogen peroxide reacts with reagent to produce a chromophore which is read bichromatically at 660/800 nm. The amount of dye formed is proportional to the uric acid concentration in the sample.
Serum samples for measurement of SUA levels were collected at the Screening Visit, the Week −4 Visit (prior to the first dose of MTX), and the Week −2 Visit during the MTX Run-in Period; within 48 hours prior to each pegloticase infusion and after the end of each pegloticase infusion prior to discharge from the site during the Pegloticase+IMM Period; at the non-infusion Week 52/End of Study/Early Termination Visits and at the Post Treatment 3 and 6 Month Follow-up Visits. Additional serum samples for SUA levels were collected at optional non-infusion (Frequent Sampling) Visits at Weeks 1 and 7. […] Subjects with SUA level >6 mg/dL at 2 consecutive visits beginning at Week 2 visit discontinued treatment, completed the End of Pegloticase Infusion Visit procedures within 2 weeks and continued the subject visits according to the protocol (without treatment).
Efficacy analyses were performed using the modified intention-to-treat (mITT) population, defined as all enrolled subjects who received ≥1 dose of pegloticase. The proportion of Month 6 responders was summarized, along with a 95% confidence interval for the proportion. The proportion of Month 3 and overall (Months 3 and 6 combined) responders was analyzed similarly.
A subject was declared a non-responder if the subject had SUA level >6 mg/dL at 2 consecutive study visits beginning with the Week 2 Visit. In addition, a subject who withdraws from study treatment for any reason after the first dose of pegloticase in the KXX+MTX Period and prior to Month 6 (for the primary endpoint) or Month 3 (for the secondary endpoint) was considered a non-responder if SUA values were not collected at the planned time points.
Patients were administered oral MTX (15 mg/week) and folate (1 mg/day) 4 weeks prior to the first pegloticase infusion (Day 1) and throughout the pegloticase treatment period. Blood was drawn prior to each infusion to measure sUA level, monitor clinical parameters, and examine for ADA development. All patients followed typical IR prophylaxis protocols (fexofenadine one day before and the morning of each infusion and acetaminophen and IV corticosteroid the morning of each infusion).

Q: How did the “Serum Uric Acid, Observed, Mean (SD)” value (Week 7) turn out when pegloticase was run?
A: 0.30 (0.000) mg/dL

Q: And the “Serum Uric Acid, Observed, Median” value (Week 7)?
A: 0.30 mg/dL

Q: And the “sUA <6 mg/dL, n (%)” value (Week 7)?
A: 4 (100%)

Q: And the “Serum Uric Acid, Change from Baseline, Mean (SD)” value (“Serum Uric Acid, Change … (SD)” for short) (Week 8 - Post-Infusion)?
A: −8.98 (2.679) mg/dL

Q: What about the “Serum Uric Acid, Change from Baseline, Median” value (Week 8 - Post-Infusion) of the same substance?
A: -8.95 mg/dL

Q: And the “Serum Uric Acid, Observed, Mean (SD)” value (Week 8 - Post-Infusion)?
A: 0.30 (0.000) mg/dL

Q: And the “Serum Uric Acid, Observed, Median” value (Week 8 - Post-Infusion)?
A: 0.30 mg/dL

Q: What about the “sUA <6 mg/dL, n (%)” value (Week 8 - Post-Infusion) of the same substance?
A: 12 (100%)

Q: What about the “Serum Uric Acid, Change … (SD)” value (Week 8 - Pre-Infusion) of the same substance?
A: −8.20 (3.624) mg/dL

Q: And the “Serum Uric Acid, Change from Baseline, Median” value (Week 8 - Pre-Infusion)?
A: -8.33 mg/dL

Q: What about the “Serum Uric Acid, Observed, Mean (SD)” value (Week 8 - Pre-Infusion) of the same substance?
A: 1.08 (2.472) mg/dL

Q: What about the “Serum Uric Acid, Observed, Median” value (Week 8 - Pre-Infusion) of the same substance?
A: 0.30 mg/dL

Q: And the “sUA <6 mg/dL, n (%)” value (Week 8 - Pre-Infusion)?
A: 11 (91.7%)

Q: And the “Serum Uric Acid, Change … (SD)” value (Week 10 - Post-Infusion)?
A: −8.97 (2.810) mg/dL

Q: And the “Serum Uric Acid, Change from Baseline, Median” value (Week 10 - Post-Infusion)?
A: -8.80 mg/dL

Q: What about the “Serum Uric Acid, Observed, Mean (SD)” value (Week 10 - Post-Infusion) of the same substance?
A: 0.30 (0.000) mg/dL

Q: What about the “Serum Uric Acid, Observed, Median” value (Week 10 - Post-Infusion) of the same substance?
A: 0.30 mg/dL

Q: What about the “sUA <6 mg/dL, n (%)” value (Week 10 - Post-Infusion) of the same substance?
A: 11 (100%)

Q: And the “Serum Uric Acid, Change … (SD)” value (Week 10 - Pre-Infusion)?
A: −8.33 (3.476) mg/dL

Q: And the “Serum Uric Acid, Change from Baseline, Median” value (Week 10 - Pre-Infusion)?
A: -8.70 mg/dL

Q: And the “Serum Uric Acid, Observed, Mean (SD)” value (Week 10 - Pre-Infusion)?
A: 0.95 (2.252) mg/dL

Q: What about the “Serum Uric Acid, Observed, Median” value (Week 10 - Pre-Infusion) of the same substance?
A: 0.30 mg/dL

Q: What about the “sUA <6 mg/dL, n (%)” value (Week 10 - Pre-Infusion) of the same substance?
A: 11 (91.7%)

Q: What about the “Serum Uric Acid, Change … (SD)” value (Week 12 - Post-Infusion) of the same substance?
A: −9.13 (2.911) mg/dL

Q: What about the “Serum Uric Acid, Change from Baseline, Median” value (Week 12 - Post-Infusion) of the same substance?
A: -9.05 mg/dL

Q: And the “Serum Uric Acid, Observed, Mean (SD)” value (Week 12 - Post-Infusion)?
A: 0.30 (0.000) mg/dL

Q: And the “Serum Uric Acid, Observed, Median” value (Week 12 - Post-Infusion)?
A: 0.30 mg/dL

Q: And the “sUA <6 mg/dL, n (%)” value (Week 12 - Post-Infusion)?
A: 10 (100%)

Q: And the “Serum Uric Acid, Change … (SD)” value (Week 12 - Pre-Infusion)?
A: −8.98 (2.806) mg/dL

Q: What about the “Serum Uric Acid, Change from Baseline, Median” value (Week 12 - Pre-Infusion) of the same substance?
A: -8.80 mg/dL

Q: And the “Serum Uric Acid, Observed, Mean (SD)” value (Week 12 - Pre-Infusion)?
A: 0.30 (0.015) mg/dL

Q: What about the “Serum Uric Acid, Observed, Median” value (Week 12 - Pre-Infusion) of the same substance?
A: 0.30 mg/dL

Q: What about the “sUA <6 mg/dL, n (%)” value (Week 12 - Pre-Infusion) of the same substance?
A: 11 (100%)

Q: What about the “Serum Uric Acid, Change … (SD)” value (Week 14 - Post-Infusion) of the same substance?
A: −9.01 (2.959) mg/dL

Q: And the “Serum Uric Acid, Change from Baseline, Median” value (Week 14 - Post-Infusion)?
A: -9.05 mg/dL

Q: And the “Serum Uric Acid, Observed, Mean (SD)” value (Week 14 - Post-Infusion)?
A: 0.30 (0.000) mg/dL

Q: And the “Serum Uric Acid, Observed, Median” value (Week 14 - Post-Infusion)?
A: 0.30 mg/dL

Q: And the “sUA <6 mg/dL, n (%)” value (Week 14 - Post-Infusion)?
A: 10 (100%)

Q: What about the “Serum Uric Acid, Change … (SD)” value (Week 14 - Pre-Infusion) of the same substance?
A: −8.97 (2.810) mg/dL

Q: And the “Serum Uric Acid, Change from Baseline, Median” value (Week 14 - Pre-Infusion)?
A: -8.80 mg/dL

Q: What about the “Serum Uric Acid, Observed, Mean (SD)” value (Week 14 - Pre-Infusion) of the same substance?
A: 0.30 (0.000) mg/dL

Q: What about the “Serum Uric Acid, Observed, Median” value (Week 14 - Pre-Infusion) of the same substance?
A: 0.30 mg/dL

Q: What about the “sUA <6 mg/dL, n (%)” value (Week 14 - Pre-Infusion) of the same substance?
A: 11 (100%)

Q: What about the “Serum Uric Acid, Change … (SD)” value (Week 16 - Post-Infusion) of the same substance?
A: −8.97 (2.810) mg/dL

Q: And the “Serum Uric Acid, Change from Baseline, Median” value (Week 16 - Post-Infusion)?
A: -8.80 mg/dL

Q: And the “Serum Uric Acid, Observed, Mean (SD)” value (Week 16 - Post-Infusion)?
A: 0.30 (0.000) mg/dL

Q: What about the “Serum Uric Acid, Observed, Median” value (Week 16 - Post-Infusion) of the same substance?
A: 0.30 mg/dL

Q: And the “sUA <6 mg/dL, n (%)” value (Week 16 - Post-Infusion)?
A: 11 (100%)

Q: And the “Serum Uric Acid, Change … (SD)” value (Week 16 - Pre-Infusion)?
A: −8.97 (2.810) mg/dL

Q: And the “Serum Uric Acid, Change from Baseline, Median” value (Week 16 - Pre-Infusion)?
A: -8.80 mg/dL

Q: And the “Serum Uric Acid, Observed, Mean (SD)” value (Week 16 - Pre-Infusion)?
A: 0.30 (0.000) mg/dL

Q: And the “Serum Uric Acid, Observed, Median” value (Week 16 - Pre-Infusion)?
A: 0.30 mg/dL

Q: What about the “sUA <6 mg/dL, n (%)” value (Week 16 - Pre-Infusion) of the same substance?
A: 11 (100%)

Q: What about the “Serum Uric Acid, Change … (SD)” value (Week 18 - Post-Infusion) of the same substance?
A: −8.97 (2.810) mg/dL

Q: And the “Serum Uric Acid, Change from Baseline, Median” value (Week 18 - Post-Infusion)?
A: -8.80 mg/dL

Q: And the “Serum Uric Acid, Observed, Mean (SD)” value (Week 18 - Post-Infusion)?
A: 0.30 (0.000) mg/dL

Q: What about the “Serum Uric Acid, Observed, Median” value (Week 18 - Post-Infusion) of the same substance?
A: 0.30 mg/dL

Q: And the “sUA <6 mg/dL, n (%)” value (Week 18 - Post-Infusion)?
A: 11 (100%)

Q: And the “Serum Uric Acid, Change … (SD)” value (Week 18 - Pre-Infusion)?
A: −8.97 (2.810) mg/dL

Q: And the “Serum Uric Acid, Change from Baseline, Median” value (Week 18 - Pre-Infusion)?
A: -8.80 mg/dL

Q: And the “Serum Uric Acid, Observed, Mean (SD)” value (Week 18 - Pre-Infusion)?
A: 0.30 (0.000) mg/dL

Q: And the “Serum Uric Acid, Observed, Median” value (Week 18 - Pre-Infusion)?
A: 0.30 mg/dL

Q: What about the “sUA <6 mg/dL, n (%)” value (Week 18 - Pre-Infusion) of the same substance?
A: 11 (100%)
